Laboratory results taken from publication PMC5986797, “Laminin heparin-binding peptides bind to several growth factors and enhance diabetic wound healing” (Nature Communications, 2018).
Each block holds one substance with its values, some of them ahead of it.

Tests used:
[1] = test system: recombinant human laminin isoforms (–111, –211, –332, –411, –421, –511, and –521); assay: ELISA: binding of full-length laminin isoforms to absorbed GFs and CXCL chemokines; settings: 50 nM GF coated, 10 nM laminin, n = 4; for binding to all tested laminin isoforms (ELISA, A450 nm): signals greater than 0.1 indicate binding; for binding to the other laminin isoforms (ELISA, A450 nm): isoforms other than laminin-332
Description: Ninety-six-well ELISA plates (med-binding, Greiner Bio-One) were coated with 50 nM GFs in 100 µL/well of phosphate-buffered saline (PBS) at 37 °C for more than 2 h. After blocking with 2% BSA solution containing PBS and 0.05% Tween 20 (PBS-T), 10 nM recombinant human laminin isoforms (–111, –211, –332, –411, –421, –511, and –521) (>95% purity tested by SDS-PAGE, BioLamina) in 100 µL/well PBS were added. Bound laminin was detected with 100 µL/well rabbit anti-human LAMC1 polyclonal antibody (Assay Biotech, Catalog No. C13072, 1:1000 dilution in PBS) or rabbit anti-human LAMA3 polyclonal antibody (Assay Biotech, Catalog No. C13066, 1:1000 dilution in PBS). After incubation with biotinylated anti-rabbit antibody for 60 min at room temperature (RT), HRP-conjugated streptavidin (Jackson ImmunoResearch) was added. After 60 min of incubation at RT, 50 μL of TMB substrate (Sigma-Aldrich) was added. The reactions were stopped by adding 25 μL of 2 N H2SO4. Subsequently, the absorbance at 450 nm was measured with a reference of 570 nm.

[2] = ELISA: biotinylated heparin binding to laminin peptides; set-up: key to Interaction with Heparin: ++ indicates high affinities; + indicates medium/low affinities; settings: for binding to heparin (ELISA): 10 µg/mL laminin peptide coated (legend; method 1 μg/mL), 10 µg/mL biotinylated heparin, vs BSA-coated wells, n = 4; for Interaction with Heparin: summary table
Description: (§1) ELISA tests were performed as described above. In brief, […] recombinant protein, laminin alpha 4 LG domain recombinant protein (R&D Systems), laminin alpha 5 LG domain recombinant protein (LD BioPharma), or laminin peptide (sequences are described in Supplementary Table 1, chemically synthesized by Genscript) in PBS for 2 h at 37 °C. A concentration of 1 μg/mL of BSA served as non-binding protein control. After blocking with 2% BSA PBS-0.05% Tween 20 (PBS-T) solution, 1 μg/mL of the recombinant human proteins (VEGF-A121, VEGF-A165, PlGF-1, PlGF-2, PDGF-BB, or FGF-2) or 10 μg/mL of biotinylated heparin (Sigma-Aldrich) were added. Bound GF was detected with biotinylated antibodies for human VEGF-A, PlGF, PDGF-BB (R&D Systems, Catalog No. DY220, 1:180 dilution), or FGF-2 (R&D Systems). The antibodies were detected by streptavidin-HRP (R&D Systems).

VEGF-A165 = assay: ELISA: VEGF-A165 binding to laminin LG domain / laminin peptide; set-up: species or system human; settings: 10 µg/mL laminin peptide coated (legend; method 1 μg/mL); 1 μg/mL GF; vs BSA-coated wells; n = 4
Description: as §1

GF = assay: ELISA: GF binding to laminin peptides, stated for the tested GFs together; set-up: species or system human; key: ++ indicates high affinities; + indicates medium/low affinities; settings: summary table
Description: (§2) ELISA tests were performed as described above. In brief, ELISA plates were coated with 1 μg/mL of laminin alpha 3 LG domain recombinant protein, laminin alpha 4 LG domain recombinant protein (R&D Systems), laminin alpha 5 LG domain recombinant protein (LD BioPharma), or laminin peptide (sequences are described in Supplementary Table 1, chemically synthesized by Genscript) in PBS for 2 h at 37 °C. A concentration of 1 μg/mL of BSA served as non-binding protein control. After blocking with 2% BSA PBS-0.05% Tween 20 (PBS-T) solution, 1 μg/mL of the recombinant human proteins (VEGF-A121, VEGF-A165, PlGF-1, PlGF-2, PDGF-BB, or FGF-2) or 10 μg/mL of biotinylated heparin (Sigma-Aldrich) were added. Bound GF was detected with biotinylated antibodies for human VEGF-A, PlGF, PDGF-BB (R&D Systems, Catalog No. DY220, 1:180 dilution), or FGF-2 (R&D Systems). The antibodies were detected by streptavidin-HRP (R&D Systems).

[3] = test system: recombinant human syndecan-1, syndecan-2, syndecan-3, and syndecan-4; assay: ELISA: syndecan binding to laminin peptides; set-up: key to Interaction with Syndecan: ++ indicates high affinities; + indicates medium/low affinities; settings: for binding to syndecans 1–4 (ELISA): 10 µg/mL laminin peptide coated (legend; method 1 μg/mL), 1 μg/mL histidine-tagged syndecan, vs BSA-coated wells, n = 8; for Interaction with Syndecan: summary table
Description: ELISA tests were performed as described above. […] A concentration of 1 μg/mL of BSA served as non-binding protein control. After blocking with 2% BSA PBS-T solution, 1 μg/mL of the recombinant human syndecan-1, syndecan-2, syndecan-3, and syndecan-4 (all syndecan proteins are histidine-tagged; SinoBiological) were added. Bound GF was detected with anti-histidine tag antibody (BioLegend, Catalog No. 562504, 1:1000 dilution).

human lung fibroblasts = assay: Cell adhesion assay, fibroblasts; format: cell-based; set-up: key to Cell adhesion Fibroblast: ++ indicates high affinities; + indicates medium/low affinities; settings: for Cell adhesion Fibroblast: summary table; for fibroblast attachment on peptide-coated surfaces: without EDTA, 1 μg/mL peptide coated, 3000 cells/well, 30 min, 37 °C, FGM-2, 1% FBS, CyQUANT, vs BSA, n = 10
Description: (§3) A total of 96-well plates (non-tissue culture treated, Greiner Bio-One) were pre-coated with 1 μg/mL with laminin HBD peptides in PBS for 2 h at 37 °C, followed by blocking with 2% BSA PBS for 1 h at RT. Cell adhesion assays were performed using human lung fibroblasts (Lonza) in FGM-2 medium (Lonza) or human umbilical vein endothelial cells (HUVEC; Lonza) in EGM-2 medium (Lonza) supplemented with 1% fetal bovine serum (FBS) and 100 µg/mL VEGF-A165, with or without 5 mM EDTA (Sigma-Aldrich). Cells were plated at 3000 cells/well on laminin peptide pre-coated plates and incubated for 30 min at 37 °C, 5% CO2. Then, the medium was removed, and wells were quickly washed three times with PBS. Cell numbers were quantified using a CyQUANT assay, according to the manufacturer’s instructions (Invitrogen). All cell lines were checked for mycoplasma contamination and used in passages from 5 to 8.

PlGF-2 = assay: ELISA: PlGF-2 binding to laminin LG domain / laminin peptide; set-up: species or system human; settings: 10 µg/mL laminin peptide coated (legend; method 1 μg/mL); 1 μg/mL GF; vs BSA-coated wells; n = 4
Description: as §2

PDGF-BB = assay: ELISA: PDGF-BB binding to laminin LG domain / laminin peptide; set-up: species or system human; settings: 10 µg/mL laminin peptide coated (legend; method 1 μg/mL); 1 μg/mL GF; vs BSA-coated wells; n = 4
Description: as §2

FGF-2 = assay: ELISA: FGF-2 binding to laminin LG domain / laminin peptide; set-up: species or system human; settings: 10 µg/mL laminin peptide coated (legend; method 1 μg/mL); 1 μg/mL GF; vs BSA-coated wells; n = 4
Description: as §2

[4] = test system: human umbilical vein endothelial cells (HUVEC); assay: Cell adhesion assay, HUVEC; format: cell-based; set-up: key to Cell adhesion HUVEC: ++ indicates high affinities; + indicates medium/low affinities; settings: for Cell adhesion HUVEC: summary table; for HUVEC attachment on peptide-coated surfaces: without EDTA, 1 μg/mL peptide coated, 3000 cells/well, 30 min, 37 °C, 100 ng/mL VEGF-A165, 1% FBS, CyQUANT, n = 10
Description: as §3, with “Cell adhesion assays were performed using human lung fibroblasts (Lonza) in FGM-2 medium (Lonza) or human umbilical vein endothelial cells (HUVEC; Lonza) in EGM-2 medium (Lonza) supplemented with 1% fetal bovine serum (FBS) and 100 µg/mL VEGF-A165, with or without 5 mM EDTA (Sigma-Aldrich).” left out

binding to all tested laminin isoforms (ELISA, A450 nm) [1]: not
Substance: BMP-4: bone morphogenetic protein, PeproTech

binding to the other laminin isoforms (ELISA, A450 nm) [1]: not to the other isoforms | binding to laminin-332 (ELISA, A450 nm) [1]: bound weakly
Substance: CXCL-11: CXCL chemokine, PeproTech

binding to the other laminin isoforms (ELISA, A450 nm) [1]: not to the other isoforms | binding to laminin-332 (ELISA, A450 nm) [1]: bound weakly
Substance: CXCL-12α: CXCL chemokine, PeproTech

binding to all tested laminin isoforms (ELISA, A450 nm) [1]: bound
Substance: CXCL-12γ: C–X–C motif ligand (CXCL)-12γ, R&D systems

binding to all tested laminin isoforms (ELISA, A450 nm) [1]: did not
Substance: FGF-1: fibroblast growth factor, PeproTech

binding to all tested laminin isoforms (ELISA, A450 nm) [1]: bound
Substance: FGF-2: fibroblast growth factor, PeproTech

binding to all tested laminin isoforms (ELISA, A450 nm) [1]: bound
Substance: FGF-18: fibroblast growth factor, PeproTech

binding to all tested laminin isoforms (ELISA, A450 nm) [1]: weakly bound
Substance: HB-EGF: heparin-binding epidermal growth factor, PeproTech

Substance: IGF-1: insulin-like growth factor, PeproTech
binding to all tested laminin isoforms (ELISA, A450 nm) [1]: Neither IGF-1 nor IGF-2 displayed significant binding

Substance: IGF-2: insulin-like growth factor, PeproTech
binding to all tested laminin isoforms (ELISA, A450 nm) [1]: Neither IGF-1 nor IGF-2 displayed significant binding

binding to heparin (ELISA) [2]: do not show heparin binding | binding to VEGF-A165 (ELISA), peptides (VEGF-A165): bound | Interaction with GF (GF): + | binding to syndecans 1–4 (ELISA) [3]: weak binding | Interaction with Syndecan [3]: +
Substance: KNSFMALYLSKGR [LAMA3_3031–3043, chemically synthesized human laminin LAMA3 LG4 peptide, 13 aa]
Cell adhesion Fibroblast (human lung fibroblasts): + | fibroblast attachment on peptide-coated surfaces (human lung fibroblasts): enhancement of fibroblast attachment

binding to all tested laminin isoforms (ELISA, A450 nm) [1]: strong binding
Substance: NT-3: neurotrophin, PeproTech

binding to all tested laminin isoforms (ELISA, A450 nm) [1]: bound
Substance: PDGF-AA: platelet-derived growth factor, PeproTech

binding to all tested laminin isoforms (ELISA, A450 nm) [1]: bound
Substance: PDGF-BB: platelet-derived growth factor, PeproTech

binding to heparin (ELISA) [2]: bound to heparin | Interaction with Heparin [2]: ++ | binding to VEGF-A165 (ELISA), peptides (VEGF-A165): bound | binding to PlGF-2 (ELISA), peptides (PlGF-2): bound | binding to PDGF-BB (ELISA), peptides (PDGF-BB): bound | binding to FGF-2 (ELISA), peptides (FGF-2): bound | Interaction with GF (GF): ++ | binding to syndecans 1–4 (ELISA) [3]: significant binding | Interaction with Syndecan [3]: ++
Substance: PLFLLHKKGKNLSKPKASQNKKGGKSK [LAMA4_1408–1434, chemically synthesized human laminin LAMA4 linker peptide, 27 aa]

binding to heparin (ELISA) [2]: bound to heparin | Interaction with Heparin [2]: ++ | binding to VEGF-A165 (ELISA), peptides (VEGF-A165): preferentially bound | binding to FGF-2 (ELISA), peptides (FGF-2): preferentially bound | Interaction with GF (GF): + | binding to syndecans 1–4 (ELISA) [3]: weak binding | Interaction with Syndecan [3]: +
Substance: PPFLMLLKGSTRFNKTKTFR [LAMA3_2932–2951, chemically synthesized human laminin LAMA3 LG3–LG4 linker peptide, 20 aa]
Cell adhesion Fibroblast (human lung fibroblasts): + | fibroblast attachment on peptide-coated surfaces (human lung fibroblasts): enhancement of fibroblast attachment | Cell adhesion HUVEC [4]: + | HUVEC attachment on peptide-coated surfaces [4]: promoted HUVEC attachment

binding to heparin (ELISA) [2]: bound to heparin | Interaction with Heparin [2]: ++ | binding to PDGF-BB (ELISA), peptides (PDGF-BB): not statistically significant | Interaction with GF (GF): + | binding to syndecans 1–4 (ELISA) [3]: significant binding | Interaction with Syndecan [3]: ++
Substance: TLFLAHGRLVYMFNVGHKKLKIR [LAMA4_1521–1543, chemically synthesized human laminin LAMA4 LG4 peptide, 23 aa]
Cell adhesion Fibroblast (human lung fibroblasts): + | fibroblast attachment on peptide-coated surfaces (human lung fibroblasts): enhancement of fibroblast attachment | Cell adhesion HUVEC [4]: + | HUVEC attachment on peptide-coated surfaces [4]: promoted HUVEC attachment

binding to heparin (ELISA) [2]: bound to heparin | Interaction with Heparin [2]: ++ | binding to VEGF-A165 (ELISA), peptides (VEGF-A165): preferentially bound | binding to PlGF-2 (ELISA), peptides (PlGF-2): preferentially bound | Interaction with GF (GF): + | binding to syndecans 1–4 (ELISA) [3]: significant binding | Interaction with Syndecan [3]: ++
Substance: TPGLGPRGLQATARKASRRSRQPARHPACML [LAMA5_3300–3330, chemically synthesized human laminin LAMA5 linker peptide, 31 aa]

binding to all tested laminin isoforms (ELISA, A450 nm) [1]: bound only weakly
Substance: βNGF: β-nerve growth factor, PeproTech
